In patent publication US12077503B2, “Substituted cyclic amides and their use as herbicides” (FMC CORPORATION, priority 2015, dated 2024):

Tests used:
Assay type in all cases: in vivo
[1] = test system: ivy-leaved morning glory (Ipomoea hederacea); assay: Test G Pre-Emergence Protocol; details: Ipomoea, pre-emergence, 312 h, evaluated after 13 days; for pest or weed control at 15.625 g/ha: 15.625 g ai/ha, read-out: Morning-glory, Ivy-leaved damage rating (100=total damage to plant; 0=no damage to plant); for pest or weed control at 62.5 g/ha: 62.5 g ai/ha, 100=total damage to plant, 0=no damage to plant, read-out: plant damage rating, Morningglory, Ivy-leaved; for pest or weed control at 250 g/ha: 250 g ai/ha, read-out: Morningglory, Ivy-leaved damage rating (100=total damage to plant; 0=no damage to plant)
Method in brief: (§1)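 One day after sowing, pots are treated with a spray of test compound formulated in acetone/water 50:50 plus 0.5% Tween 20, giving 15.625, 62.5 or 250 g/ha. Evaluation on a 0–100 damage scale follows 13 days of glasshouse growth.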

[2] = test system: velvetleaf (Abutilon theophrasti); assay: Test G Pre-Emergence Protocol; details: Abutilon theophrasti, pre-emergence, 312 h, evaluated after 13 days; for pest or weed control at 15.625 g/ha: 15.625 g ai/ha; for pest or weed control at 15.625 g/ha / pest or weed control at 250 g/ha: read-out: Velvetleaf damage rating (100=total damage to plant; 0=no damage to plant); for pest or weed control at 62.5 g/ha: 62.5 g ai/ha, 100=total damage to plant, 0=no damage to plant, read-out: plant damage rating, Velvetleaf; for pest or weed control at 250 g/ha: 250 g ai/ha
Method in brief: as §1

[3] = test system: redroot pigweed (Amaranthus retroflexus); assay: Test G Pre-Emergence Protocol; details: Amaranthus retroflexus, pre-emergence, 312 h, evaluated after 13 days; for pest or weed control at 15.625 g/ha: 15.625 g ai/ha; for pest or weed control at 15.625 g/ha / pest or weed control at 250 g/ha: read-out: Pigweed, Redroot damage rating (100=total damage to plant; 0=no damage to plant); for pest or weed control at 62.5 g/ha: 62.5 g ai/ha, 100=total damage to plant, 0=no damage to plant, read-out: plant damage rating, Pigweed, Redroot; for pest or weed control at 250 g/ha: 250 g ai/ha
Method in brief: as §1

[4] = test system: corn (Zea mays); assay: Test G Pre-Emergence Protocol; details: Zea mays, pre-emergence, 312 h, evaluated after 13 days; for plant injury at 15.625 g/ha: 15.625 g ai/ha; for plant injury at 15.625 g/ha / plant injury at 250 g/ha: read-out: Corn damage rating (100=total damage to plant; 0=no damage to plant); for plant injury at 62.5 g/ha: 62.5 g ai/ha, 100=total damage to plant, 0=no damage to plant, read-out: plant damage rating, Corn; for plant injury at 250 g/ha: 250 g ai/ha
Method in brief: as §1

[5] = test system: giant foxtail (Setaria faberi); assay: Test G Pre-Emergence Protocol; details: Setaria faberi, pre-emergence, 312 h, evaluated after 13 days; for pest or weed control at 15.625 g/ha: 15.625 g ai/ha; for pest or weed control at 15.625 g/ha / pest or weed control at 250 g/ha: read-out: Foxtail, Giant damage rating (100=total damage to plant; 0=no damage to plant); for pest or weed control at 62.5 g/ha: 62.5 g ai/ha, 100=total damage to plant, 0=no damage to plant, read-out: plant damage rating, Foxtail, Giant; for pest or weed control at 250 g/ha: 250 g ai/ha
Method in brief: as §1

[6] = test system: barnyardgrass (Echinochloa crus-galli); assay: Test G Pre-Emergence Protocol; details: Echinochloa crus-galli, pre-emergence, 312 h, evaluated after 13 days; for pest or weed control at 15.625 g/ha: 15.625 g ai/ha, read-out: Barnyard grass damage rating (100=total damage to plant; 0=no damage to plant); for pest or weed control at 62.5 g/ha: 62.5 g ai/ha, 100=total damage to plant, 0=no damage to plant, read-out: plant damage rating, Barnyardgrass; for pest or weed control at 250 g/ha: 250 g ai/ha, read-out: Barnyardgrass damage rating (100=total damage to plant; 0=no damage to plant)
Method in brief: as §1

[7] = test system: ivy-leaved morning glory (Ipomoea hederacea); assay: Test G Post-Emergence Protocol; details: Ipomoea, post-emergence, 312 h; for pest or weed control at 15.625 g/ha: 15.625 g ai/ha, evaluated after 13 days (100=total damage to plant; 0=no damage to plant), read-out: Morningglory, Ivy-leaved damage rating; for pest or weed control at 62.5 g/ha: 62.5 g ai/ha, read-out: Morningglory, Ivy-leaved damage rating (100=total damage to plant; 0=no damage to plant); for pest or weed control at 62.5 g/ha / pest or weed control at 250 g/ha: evaluated after 13 days; for pest or weed control at 250 g/ha: 250 g ai/ha, read-out: damage to plant, Morningglory, Ivy-leaved (100=total damage to plant; 0=no damage to plant)
Method in brief: (§2)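 Post-emergence herbicidal damage, scored visually 0–100 at 13 days. Application at 15.625, 62.5 or 250 g/ha onto 8-day-old plants grown under glasshouse control.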

[8] = test system: velvetleaf (Abutilon theophrasti); assay: Test G Post-Emergence Protocol; details: Abutilon theophrasti, post-emergence, 312 h; for pest or weed control at 15.625 g/ha: 15.625 g ai/ha, evaluated after 13 days (100=total damage to plant; 0=no damage to plant), read-out: Velvetleaf damage rating; for pest or weed control at 62.5 g/ha: 62.5 g ai/ha, read-out: Velvetleaf damage rating (100=total damage to plant; 0=no damage to plant); for pest or weed control at 62.5 g/ha / pest or weed control at 250 g/ha: evaluated after 13 days; for pest or weed control at 250 g/ha: 250 g ai/ha, read-out: damage to plant, Velvetleaf (100=total damage to plant; 0=no damage to plant)
Method in brief: as §2

[9] = test system: redroot pigweed (Amaranthus retroflexus); assay: Test G Post-Emergence Protocol; details: Amaranthus retroflexus, post-emergence, 312 h; for pest or weed control at 15.625 g/ha: 15.625 g ai/ha, evaluated after 13 days (100=total damage to plant; 0=no damage to plant), read-out: Pigweed, Redroot damage rating; for pest or weed control at 62.5 g/ha: 62.5 g ai/ha, read-out: Pigweed, Redroot damage rating (100=total damage to plant; 0=no damage to plant); for pest or weed control at 62.5 g/ha / pest or weed control at 250 g/ha: evaluated after 13 days; for pest or weed control at 250 g/ha: 250 g ai/ha, read-out: damage to plant, Pigweed, Redroot (100=total damage to plant; 0=no damage to plant)
Method in brief: as §2

[10] = test system: corn (Zea mays); assay: Test G Post-Emergence Protocol; details: Zea mays, post-emergence, 312 h; for plant injury at 15.625 g/ha: 15.625 g ai/ha, evaluated after 13 days (100=total damage to plant; 0=no damage to plant), read-out: Corn damage rating; for plant injury at 62.5 g/ha: 62.5 g ai/ha, read-out: Corn damage rating (100=total damage to plant; 0=no damage to plant); for plant injury at 62.5 g/ha / plant injury at 250 g/ha: evaluated after 13 days; for plant injury at 250 g/ha: 250 g ai/ha, read-out: damage to plant, Corn (100=total damage to plant; 0=no damage to plant)
Method in brief: as §2

[11] = test system: giant foxtail (Setaria faberi); assay: Test G Post-Emergence Protocol; details: Setaria faberi, post-emergence, 312 h; for pest or weed control at 15.625 g/ha: 15.625 g ai/ha, evaluated after 13 days (100=total damage to plant; 0=no damage to plant), read-out: Foxtail, Giant damage rating; for pest or weed control at 62.5 g/ha: 62.5 g ai/ha, read-out: Foxtail, Giant damage rating (100=total damage to plant; 0=no damage to plant); for pest or weed control at 62.5 g/ha / pest or weed control at 250 g/ha: evaluated after 13 days; for pest or weed control at 250 g/ha: 250 g ai/ha, read-out: damage to plant, Foxtail, Giant (100=total damage to plant; 0=no damage to plant)
Method in brief: as §2

[12] = test system: barnyardgrass (Echinochloa crus-galli); assay: Test G Post-Emergence Protocol; details: Echinochloa crus-galli, post-emergence, 312 h; for pest or weed control at 15.625 g/ha: 15.625 g ai/ha, evaluated after 13 days (100=total damage to plant; 0=no damage to plant), read-out: Barnyardgrass damage rating; for pest or weed control at 62.5 g/ha: 62.5 g ai/ha, read-out: Barnyardgrass damage rating (100=total damage to plant; 0=no damage to plant); for pest or weed control at 62.5 g/ha / pest or weed control at 250 g/ha: evaluated after 13 days; for pest or weed control at 250 g/ha: 250 g ai/ha, read-out: damage to plant, Barnyardgrass (100=total damage to plant; 0=no damage to plant)
Method in brief: as §2

SMILES: CN1C[C@@H](c2ccc(C(F)(F)F)cc2)[C@H](C(=O)Nc2cccc(Cl)c2C#N)C1=O (racemic) [Compound 1645]
- pest or weed control at 15.625 g/ha [1]: 0%
- pest or weed control at 62.5 g/ha [1]: 0%
- pest or weed control at 250 g/ha [1]: 0%
- pest or weed control at 15.625 g/ha [2]: 0%
- pest or weed control at 62.5 g/ha [2]: 0%
- pest or weed control at 250 g/ha [2]: 10%
- pest or weed control at 15.625 g/ha [3]: 0%
- pest or weed control at 62.5 g/ha [3]: 10%
- pest or weed control at 250 g/ha [3]: 10%
- plant injury at 15.625 g/ha [4]: 0%
- plant injury at 62.5 g/ha [4]: 0%
- plant injury at 250 g/ha [4]: 0%
- pest or weed control at 15.625 g/ha [5]: 0%
- pest or weed control at 62.5 g/ha [5]: 30%
- pest or weed control at 250 g/ha [5]: 60%
- pest or weed control at 15.625 g/ha [6]: 0%
- pest or weed control at 62.5 g/ha [6]: 40%
- pest or weed control at 250 g/ha [6]: 50%
- pest or weed control at 15.625 g/ha [7]: 0%
- pest or weed control at 62.5 g/ha [7]: 0%
- pest or weed control at 250 g/ha [7]: 0%
- pest or weed control at 15.625 g/ha [8]: 0%
- pest or weed control at 62.5 g/ha [8]: 0%
- pest or weed control at 250 g/ha [8]: 0%
- pest or weed control at 15.625 g/ha [9]: 0%
- pest or weed control at 62.5 g/ha [9]: 40%
- pest or weed control at 250 g/ha [9]: 40%
- plant injury at 15.625 g/ha [10]: 0%
- plant injury at 62.5 g/ha [10]: 0%
- plant injury at 250 g/ha [10]: 0%
- pest or weed control at 15.625 g/ha [11]: 0%
- pest or weed control at 62.5 g/ha [11]: 70%
- pest or weed control at 250 g/ha [11]: 80%
- pest or weed control at 15.625 g/ha [12]: 0%
- pest or weed control at 62.5 g/ha [12]: 20%
- pest or weed control at 250 g/ha [12]: 70%

SMILES: Cc1cnc(NC(=O)[C@@H]2C(=O)N(C)C[C@H]2c2ccc(C(F)(F)F)cc2)nc1 (racemic) [Compound 1575]
- pest or weed control at 15.625 g/ha [1]: 0%
- pest or weed control at 62.5 g/ha [1]: 0%
- pest or weed control at 250 g/ha [1]: 0%
- pest or weed control at 15.625 g/ha [2]: 0%
- pest or weed control at 62.5 g/ha [2]: 0%
- pest or weed control at 250 g/ha [2]: 0%
- pest or weed control at 15.625 g/ha [3]: 0%
- pest or weed control at 62.5 g/ha [3]: 0%
- pest or weed control at 250 g/ha [3]: 0%
- plant injury at 15.625 g/ha [4]: 0%
- plant injury at 62.5 g/ha [4]: 0%
- plant injury at 250 g/ha [4]: 0%
- pest or weed control at 15.625 g/ha [5]: 0%
- pest or weed control at 62.5 g/ha [5]: 0%
- pest or weed control at 250 g/ha [5]: 0%
- pest or weed control at 15.625 g/ha [6]: 0%
- pest or weed control at 62.5 g/ha [6]: 0%
- pest or weed control at 250 g/ha [6]: 0%
- pest or weed control at 15.625 g/ha [7]: 0%
- pest or weed control at 62.5 g/ha [7]: 0%
- pest or weed control at 250 g/ha [7]: 0%
- pest or weed control at 15.625 g/ha [8]: 0%
- pest or weed control at 62.5 g/ha [8]: 0%
- pest or weed control at 250 g/ha [8]: 0%
- pest or weed control at 15.625 g/ha [9]: 0%
- pest or weed control at 62.5 g/ha [9]: 0%
- pest or weed control at 250 g/ha [9]: 0%
- plant injury at 15.625 g/ha [10]: 0%
- plant injury at 62.5 g/ha [10]: 0%
- plant injury at 250 g/ha [10]: 0%
- pest or weed control at 15.625 g/ha [11]: 0%
- pest or weed control at 62.5 g/ha [11]: 0%
- pest or weed control at 250 g/ha [11]: 0%
- pest or weed control at 15.625 g/ha [12]: 0%
- pest or weed control at 62.5 g/ha [12]: 0%
- pest or weed control at 250 g/ha [12]: 0%
